Test results taken from article PMC7822874, “Chemoprotective antimalarials identified through quantitative high-throughput screening of Plasmodium blood and liver stage parasites” (Scientific Reports, 2021).

Experiment: in vitro
Conditions: human, hepg2-a16-cd81egfp cells
Further: reference of the scale not given here.

SMILES | viability at 3 µM (% viability) [%] | viability at 3 µM [%]
CCOc1ccc(C(C)NC(S)=NC2CCCCC2)cc1OCC (centres unmarked) [MLS001007596] | 95.1 | 
CN([C@@H](Cc1ccc(OS(=O)(=O)c2cccc3cnccc23)cc1)C(=O)N1CCN(c2ccccc2)CC1)S(=O)(=O)c1cccc2cnccc12 [NCGC00162398] | 95.6 | 
CCOC(=O)c1sc2nc3c(SCCC#N)cc(C(=O)c4cc(F)ccc4O)cn3c(=O)c2c1C [MLS000393119] | 91.3 | 
CC(C)c1ccc(CC(=O)N2CCCc3ncc(C(=O)Nc4cccnc4)cc32)cc1 [NCGC00420003] | 45.1 | 
O=C(Nc1ccc(C(F)(F)F)cc1)N1CCN(c2ccnc3cc(Cl)ccc23)CC1 [MLS000830170] | 90.8 | 
COc1ccc2ccc(O)c(CN3CC=C(c4ccccc4)CC3)c2c1 [MLS000760157] | 97.2 | 
Nc1nonc1-n1nnc(C(=O)N/N=C/c2ccc(Cl)cc2)c1-c1ccc2c(c1)OCO2 [MLS001142698] | 104 | 
CCc1ccccc1OC[C@@H](O)CN[C@H]1CCCc2ccccc21 [MLS002172481] | 97.6 | 
CN1C2CCC1/C(=C/c1ccccn1)C(=O)/C2=C\c1ccccn1 [MLS000702810] | 83 | 
COc1ccc(/C=N/Nc2cc(C)nc(-n3nc(C)cc3C)n2)c(OC)c1 [MLS000589396] | 91 | 
COc1ccccc1-c1cc(C(=O)N2CCN(S(=O)(=O)c3ccc(C)cc3)CC2)[nH]n1 [MLS000924750] | 96.6 | 
CCCC(=O)Nc1sc2c(c1C(=O)Nc1ccccn1)CCCC2 [MLS000765104] | 97.6 | 
O=C(Nc1ccncc1)Nc1cccc(Cl)c1Cl [MLS001224778] | 96.5 | 
C=C1C(=O)O[C@@H]2C[C@@H](C)[C@@H]3C=CC(=O)[C@@]3(C)[C@@H](OC(=O)CC(=O)O[C@H]3[C@@H]4C(=C)C(=O)O[C@@H]4C[C@@H](C)[C@@H]4C=CC(=O)[C@]43C)[C@H]12 [MLS000728515] |  | 16.4
CC1CCN(S(=O)(=O)c2ccc3c(c2)C(=NO)c2cc(S(=O)(=O)N4CCC(C)CC4)ccc2-3)CC1 [MLS000551434] | 6.86 | 
CCOC(=O)C1CCN(Cc2cc(Cl)c3ccccc3c2O)CC1 [MLS001171913] | 87.1 | 
Oc1c(C(Nc2nccs2)c2ccc(C(F)(F)F)cc2)ccc2cccnc12 (centres unmarked) [MLS000774842] | 43.8 | 
CCOC(=O)C1CCN(C(=O)c2cc(C(C)(C)C)nn2Cc2ccccc2)CC1 [MLS000860456] | 90.8 | 
COC(=O)C1=C(C)NC(C)=C(C(=O)OCCCN2CCC(c3ccccc3)(c3ccccc3)CC2)C1c1cccc([N+](=O)[O-])c1 (centres unmarked) [NCGC00163135] |  | 81
CCC(=O)Nc1cc(=O)[nH]c2nc(-c3ccc(Cl)cc3)nn12 [MLS000779210] | 92 | 
COc1ccc(-n2nc3c(c2NC(=O)CCl)CSC3)cc1 [MLS001066697] | 98.9 | 
COc1cccc(NC(=O)CN(C)C(=O)c2ccc(-c3cccc(C(F)(F)F)c3)o2)c1 [MLS001071804] | 90.3 | 
N#Cc1ccc(NC(=O)Nc2ccc(Cl)cc2)cc1 [MLS000104525] | 77.8 | 
CCCCCCSc1ccc([C@H]2N[C@@](Cc3ccccc3)(C(=O)OC)[C@H]3C(=O)N(CC)C(=O)[C@@H]23)cc1 [MLS001362744] | 91.8 | 
OC(CNCC1CCCO1)Cn1c2ccc(Cl)cc2c2cc(Cl)ccc21 (centres unmarked) [MLS000525403] | 90.7 | 
c1ccc(Nc2cc3c(cn2)CN(Cc2ccc4[nH]ccc4c2)CCN3)cc1 [NCGC00411105] | 49.4 | 
COc1cccc(C2C3=C(N=c4sc(=Cc5ccccc5O)c(=O)n42)c2ccccc2CC3)c1OC (centres unmarked) [MLS000580951] | 92.9 | 

SMILES | viability at 3 µM (% viability) [%] | viability at 3 µM [%]
O=C(/C(=C/c1ccc(Cl)cc1)c1nc2ccccc2[nH]1)c1cccs1 [MLS000565128] | 79.2 | 
COc1cc2nc(Nc3ccc(F)cc3)nc(N)c2cc1OC [NCGC00107353] | 92.7 | 
COc1cccc2sc(N3CCN(C(=O)c4ccc([N+](=O)[O-])o4)CC3)nc12 [MLS001234267] | 93.6 | 
COc1ccccc1CNC(=O)CCn1c(=O)[nH]c2ccsc2c1=O [MLS000044764] | 109 | 
CCCCCCCc1c(C)[nH]c(N2CCOCC2)nc1=O [MLS000531187] | 90.5 | 
N#Cc1c2c(c(NCc3ccco3)n3c1nc1ccccc13)CCC2 [MLS000109113] | 97.7 | 
O=C(Nc1ccc(C2=NCCN2)cc1)c1ccc(C(=O)Nc2ccc(C3=NCCN3)cc2)c(Cl)c1 [MLS000737368] | 90 | 
Nc1nonc1-n1nnc(C(=O)N/N=C/c2ccc(Br)cc2)c1-c1ccc2c(c1)OCO2 [MLS001142619] | 89.5 | 
CC1(C)N=C(N)N=C(N)N1c1ccc(OCCCOc2ccccc2)c(Cl)c1 [MLS000738223] | 34.6 | 
Cc1cc(C)cc(C(=O)Nc2ccc3c(N4CCCC4)ncnc3c2)c1 [NCGC00425487] | 31.8 | 
CC(C)(C)Nc1nc(NC(C)(C)C)nc(-n2ccnc2)n1 [MLS000044025] | 90.9 | 
COc1ccc(OC)c(-n2c(-c3cccc(O)c3)n[nH]c2=S)c1 [MLS000089016] | 93.1 | 
CCN(CC)CCCN(c1ccccc1)C1Cc2ccccc2C1 [NCGC00167576] | 99.6 | 
C/C(=N\NC(=O)c1ccccc1OCc1ccc(F)cc1)c1ccccn1 [MLS002162875] | 82 | 
Cc1ccc(C(=O)Nc2nc(-c3ccccn3)cs2)cc1[S+](=O)([O-])N1CCOCC1 [NCGC00345210] | 29.5 | 
O=S1(=O)N(CCN2CC=C(c3c[nH]c4cc(F)ccc34)CC2)c2cccc3c2N1CCC3 [NCGC00015600] | 76.3 | 
Cc1ccc(-[n+]2c(-c3ccc(Cl)cc3)cn3c2CCC3)cc1 [MLS000780005] | 90.4 | 
CC1=C[C@@H](CNCc2cccnc2)[C@H](C(C)C)C[C@H]1Cc1nnc(-c2ccc([N+](=O)[O-])cc2)o1 [NCGC00394797] | 91.7 | 
O=C(c1ccc([N+](=O)[O-])o1)N1CCN(c2nc3c(Cl)cccc3s2)CC1 [MLS001234208] | 90.1 | 
CC(C)(C)CC(C)(C)c1ccc(O)c(Cc2ccc(Cl)cc2Cl)c1 [NCGC00095016] | 93.1 | 
CCOc1ccc(C(=O)Nc2ccc(-c3nc4ccccc4[nH]3)cc2)cc1[N+](=O)[O-] [MLS000577721] | 101 | 
C/C(=N\Nc1nc(-c2ccccc2O)nc2ccccc12)c1ccccc1 [MLS000714167] | 93.6 | 
Cc1ccc(NC(=O)N(Cc2ccc3c(c2)OCO3)Cc2cc3cc4c(cc3[nH]c2=O)OCCO4)cc1 [MLS000033889] | 101 | 
OCCCNc1cc(-c2ccnc(Nc3cccc(Cl)c3)n2)ccn1 [NCGC00346940] | 8.46 | 
Clc1ccc(CCC(Cn2ccnc2)Sc2c(Cl)cccc2Cl)cc1 (centres unmarked) [NCGC00179596] | 100 | 
Cc1cc(C)[n+](C)n1CC(O)Cn1c2ccccc2c2ccccc21 (centres unmarked) [MLS000711524] | 104 | 
Cc1cc(C)c(C)c(S(=O)(=O)NCc2ccc(C(=O)N3CCCCC3)cc2)c1C [MLS000547926] | 90.2 | 

SMILES | viability at 3 µM (% viability) [%] | viability at 3 µM [%]
OCC[n+]1ccc(/C=C/c2c[nH]c3ccccc23)cc1 [MLS000585200] | 90.7 | 
Cc1cc(C)n(-c2nc(NC(C)C)nc(NC(C)C)n2)n1 [MLS000068521] | 105 | 
Cc1nc2ccc(NC(=O)c3cc(S(=O)(=O)N(C)c4ccccc4)ccc3Cl)cc2s1 [MLS000393823] | 59.7 | 
CC(C)CCN(CCC(C)C)CC(O)Cn1c2ccccc2c(=O)c2ccccc21 (centres unmarked) [MLS001030199] | 88.6 | 
COc1cccc(OCCn2cc(C(=O)c3ccco3)c3ccccc32)c1 [MLS000050800] |  | 106
CC(Oc1ccc(F)cc1)C(=O)Nc1cc(C(F)(F)F)ccc1-n1cncn1 (centres unmarked) [MLS001160637] | 101 | 
O=C(Nc1nc(-c2ccccn2)cs1)c1cccc(S(=O)(=O)N2CCOCC2)c1 [MLS002161290] | 62.2 | 
COc1cc(NC(=O)c2cc([N+](=O)[O-])ccc2NC(=O)CNC2CCCCC2)cc(OC)c1 [MLS000950380] | 109 | 
Cc1cc(O)c(CN2CCN(S(=O)(=O)c3cccs3)CC2)cc1C(C)C [MLS002157185] | 92.3 | 
C/C(=N\NC(=O)c1cccc(Br)c1)c1ccccn1 [MLS001232242] | 81.3 | 
Cc1ccc(-c2cc(C(F)(F)F)n3ncc(C(=O)N4CCCCC4c4cccnc4)c3n2)cc1 (centres unmarked) [MLS000729132] | 89.9 | 
COc1cc(OC)c(NC2=CC(=O)C(=O)c3ccccc32)cc1Cl [MLS001198657] | 62 | 
C=C[C@]1(C)C[C@@H](OC(=O)CSC(C)(C)CNC(=O)[C@H](N)C(C)C)[C@]2(C)[C@H](C)CC[C@]3(CCC(=O)[C@H]32)[C@@H](C)[C@@H]1O [NCGC00167968] | 87.5 | 
CCC1(OC(=O)CN)C(=O)OCc2c1cc1n(c2=O)Cc2cc3ccccc3nc2-1 (centres unmarked) [MLS000766263] | 29.3 | 
COc1cc(NS(C)(=O)=O)ccc1Nc1c2ccccc2nc2ccccc12 [MLS002153376] | 84.3 | 
CCCCN(C(=O)c1cccc(S(=O)(=O)N(C)c2ccc(C)cc2)c1)c1c(N)n(CCCC)c(=O)[nH]c1=O [MLS001128188] | 91.7 | 
CCOc1cccc(CNCCc2c(C)[nH]c3ccc(OC(F)(F)F)cc23)c1O [MLS001198351] | 70.5 | 
COc1cnc(-c2ccccn2)nc1N(C)c1ccccc1 [MLS001166302] | 90.7 | 
Clc1ccccc1C(c1ccccc1)(c1ccccc1)n1ccnc1 [NCGC00015251] | 99.7 | 
Cc1cc(C)n(-c2nc(NC(C)(C)C)nc(NC(C)(C)C)n2)n1 [MLS000109787] | 106 | 
Cc1ccc(Nc2nnc(SCC(=O)c3ccc(O)cc3O)s2)cc1 [MLS001176347] | 99.9 | 
Cc1ccc(NC2=C/C(=N\S(=O)(=O)c3cccs3)c3ccccc3C2=O)cc1C [MLS000585841] | 81.7 | 
COc1ccc(Cl)cc1NC(=O)c1cc(-c2cc(C)ccc2O)[nH]n1 [MLS000779126] | 108 | 
Cc1ccc(S(=O)(=O)n2nccc2-c2c(-c3ccc(Cl)cc3)noc2C)cc1 [MLS001111122] | 101 | 
COc1cc(C2NCc3ccccc3-n3cccc32)ccc1O (centres unmarked) [MLS000047988] | 102 | 
Cc1ccnc(NC(=O)c2cccc(S(=O)(=O)N3CCCc4ccccc43)c2)c1 [MLS001159724] | 89.6 | 
